These results are taken from ChEMBL document CHEMBL5226365, “Xylochemical Synthesis and Biological Evaluation of the Orchidaceous Natural Products Isoarundinin I, Bleochrin F, Blestanol K, and Pleionol” (J Nat Prod, 2023).

Data set [1] in a line: Cytotoxicity against human PBMC assessed as cell viability at 100 uM incubated for 72 hrs by resazurin assay. The data set is classed as toxicity, cell-based. Background: Resazurin is reduced to fluorescent resorufin, in cell work by metabolically active cells.
A short description of data set [2]: Resistance index, ratio of IC50 for cytotoxicity against human CEM/ADR5000 cells overexpressing P-gp to IC50 for cytotoxicity against human CCRF-CEM cells. It counts as functional.
A further data set concerns CCRF-CEM. Put plainly: Cytotoxicity against human CCRF-CEM cells assessed as inhibition of cell growth incubated for 72 hrs by resazurin assay. It counts as functional, cell-based.
A further data set relates to ADR5000 cell line. Put plainly: Cytotoxicity against human CEM/ADR5000 cells overexpressing P-gp assessed as inhibition of cell growth incubated for 72 hrs by resazurin assay. To be noted: ADR5000, 72 h. It counts as functional, cell-based.

The term IC50 denotes the concentration that gives 50% inhibition.

With `COc1cc(O)c(Cc2ccc(O)cc2)c2c1C(c1ccc(O)cc1)c1ccc(O)cc1CC2` (racemic), the Activity entry in data set [1] is “Non-Toxic”. The “Ratio IC50” value in data set [2] came out at 7.1. The IC50 with CCRF-CEM amounted to 6.7 µM; in the data set on ADR5000 cell line it was 47.8 µM.
`COc1cc(C2c3ccc(O)cc3CCc3cc(O)cc(OC)c32)ccc1O` (stereo unspecified): in data set [1], the Activity entry is reported as “Non-Toxic”. Moreover, in data set [2], the “Ratio IC50” value was 0.9. The IC50 is 18.7 µM in the data set with CCRF-CEM and 17.2 µM in the data set with ADR5000 cell line.
Turning to `COc1cccc2c1C(=O)c1c(O)c3c(c(O)c1C2=O)C[C@@](O)(C(=O)CO)C[C@@H]3O[C@H]1C[C@H](N)[C@H](O)[C@H](C)O1` [DOXORUBICIN], the “Ratio IC50” value in data set [2] is over 1000.
For the molecule `COc1cc(O)cc(CCc2cccc(O)c2)c1Cc1ccc(O)cc1`, the Activity result in data set [1] is given as “Non-Toxic”. The “Ratio IC50” value in data set [2] is 1.4. Moreover, the 50% inhibitory concentration (IC50) was determined as 43.4 µM in the data set with CCRF-CEM and 60.4 µM in the data set on ADR5000 cell line.
With `COc1cc(O)cc2c1C(c1ccc(O)cc1)c1ccc(O)cc1CC2` (racemic), the Activity entry in data set [1] is “Non-Toxic”. Also, the IC50 in the data set with CCRF-CEM is 45.7 µM; in the data set with ADR5000 cell line it was over 100 µM.
